Activity calls are given as the source filed them. The rule behind the calls is not given here.
Tests used:
PANC-1 [1] = assay: Induction of apoptosis in human PANC-1 cells assessed as viable cells at 0.6 uM incubated for 48 hrs by Annexin V-FITC/PI staining based flow cytometry (reference value: 91.64 %); type: functional; conditions: read-out: Activity
PANC-1 [2] = assay: Induction of cell cycle arrest in human PANC-1 cells assessed as accumulation at S phase at 0.6 uM incubated for 24 hrs by PI staining based flow cytometry (reference value: 38.94 %); type: functional
PANC-1 [3] = assay: Induction of cell cycle arrest in human PANC-1 cells assessed as accumulation at G1 phase at 10 uM incubated for 24 hrs by PI staining based flow cytometry (reference value: 51.70 %); type: functional
PANC-1 [4] = assay: Anti-migration activity in human PANC-1 cells at 2 uM in presence of JQ1 incubated for 24 hrs by wound healing assay; type: functional, cell-based
[5] = Toxicity in BALB/c mouse xenografted with human PANC-1 cells assessed as body weight loss at 40 mg/kg, ip for 4 weeks administered for 5 days consecutively and 2 days without treatment on every week; type: organism-based; conditions: in vivo, 672 h
PANC-1 [6] = assay: Induction of cell cycle arrest in human PANC-1 cells assessed as accumulation at G2/M phase incubated for 24 hrs by PI staining based flow cytometry; type: functional; conditions: dose 0.6-2 µM
PANC-1 [7] = assay: Induction of cell cycle arrest in human PANC-1 cells assessed as accumulation at G1 phase at 0.6 uM incubated for 24 hrs by PI staining based flow cytometry (reference value: 51.70 %); type: functional
PANC-1 [8] = assay: Induction of apoptosis in human PANC-1 cells assessed as viable cells at 5 uM incubated for 48 hrs by Annexin V-FITC/PI staining based flow cytometry (reference value: 91.64 %); type: functional; conditions: read-out: Activity
PANC-1 [9] = assay: Antitumor activity against human PANC-1 cells xenografted in BALB/c mouse assessed as inhibition of tumor weight at 40 mg/kg, ip for 4 weeks administered for 5 days consecutively and 2 days without treatment on every week in presence of JQ1; type: functional, organism-based
PANC-1 [10] = assay: Induction of cell cycle arrest in human PANC-1 cells assessed as accumulation at S phase at 5 uM incubated for 24 hrs by PI staining based flow cytometry (reference value: 38.94 %); type: functional
PANC-1 [11] = assay: Induction of cell cycle arrest in human PANC-1 cells assessed as accumulation at S phase at 10 uM incubated for 24 hrs by PI staining based flow cytometry (reference value: 38.94 %); type: functional
PANC-1 [12] = assay: Induction of apoptosis in human PANC-1 cells assessed as viable cells at 1.2 uM incubated for 48 hrs by Annexin V-FITC/PI staining based flow cytometry (reference value: 91.64 %); type: functional; conditions: read-out: Activity
[13] = Toxicity in BALB/c mouse xenografted with human PANC-1 cells assessed as animal morbidity at 40 mg/kg, ip for 4 weeks administered for 5 days consecutively and 2 days without treatment on every week in presence of JQ1; type: organism-based; conditions: in vivo, 672 h
PANC-1 [14] = assay: Induction of apoptosis in human PANC-1 cells assessed as early apoptotic cells at 10 uM incubated for 48 hrs by Annexin V-FITC/PI staining based flow cytometry (reference value: 1.41 %); type: functional
PANC-1 [15] = assay: Induction of cell cycle arrest in human PANC-1 cells assessed as accumulation at S phase at 2 uM incubated for 24 hrs in presence of JQ1 by PI staining based flow cytometry (reference value: 38.94 %); type: functional
PANC-1 [16] = assay: Induction of DNA damage in human PANC-1 cells assessed as increase in gamma-H2AX level at 2 uM in presence of JQ1 by Western blot analysis; type: functional, cell-based
[17] = Toxicity in BALB/c mouse xenografted with human PANC-1 cells assessed as pathological changes in heart at 40 mg/kg, ip for 4 weeks administered for 5 days consecutively and 2 days without treatment on every week by H and E staining based analysis; type: organism-based; conditions: in vivo, 672 h
PANC-1 [18] = assay: Induction of apoptosis in human PANC-1 cells assessed as viable cells at 2 uM incubated for 48 hrs in presence of JQ1 by Annexin V-FITC/PI staining based flow cytometry (reference value: 91.64 %); type: functional; conditions: read-out: Activity
PANC-1 [19] = assay: Induction of cell cycle arrest in human PANC-1 cells assessed as accumulation at G2 phase at 2 uM incubated for 24 hrs in presence of JQ1 by PI staining based flow cytometry (reference value: 9.36 %); type: functional
PANC-1 [20] = assay: Antitumor activity against human PANC-1 cells xenografted in BALB/c mouse assessed as reduction in tumor growth at 40 mg/kg, ip for 4 weeks administered for 5 days consecutively and 2 days without treatment on every week; type: functional, organism-based
[21] = Toxicity in BALB/c mouse xenografted with human PANC-1 cells assessed as pathological changes in lung at 40 mg/kg, ip for 4 weeks administered for 5 days consecutively and 2 days without treatment on every week in presence of JQ1 by H and E staining based analysis; type: organism-based; conditions: in vivo, 672 h
PANC-1 [22] = assay: Induction of apoptosis in human PANC-1 cells assessed as late apoptotic cells at 1.2 uM incubated for 48 hrs by Annexin V-FITC/PI staining based flow cytometry (reference value: 3.87 %); type: functional
PANC-1 [23] = assay: Induction of cell cycle arrest in human PANC-1 cells assessed as accumulation at S phase at 1.2 uM incubated for 24 hrs by PI staining based flow cytometry (reference value: 38.94 %); type: functional
PANC-1 [24] = assay: Antitumor activity against human PANC-1 cells xenografted in BALB/c mouse at 40 mg/kg, ip for 4 weeks administered for 5 days consecutively and 2 days without treatment on every week in presence of JQ1 relative to control; type: functional; conditions: PANC-1, 672 h, read-out: TGI
PANC-1 [25] = assay: Induction of cell cycle arrest in human PANC-1 cells assessed as accumulation at G2 phase at 0.6 uM incubated for 24 hrs by PI staining based flow cytometry (reference value: 9.36 %); type: functional
PANC-1 [26] = assay: Induction of apoptosis in human PANC-1 cells assessed as necrotic cells at 0.6 uM incubated for 48 hrs by Annexin V-FITC/PI staining based flow cytometry (reference value: 3.09 %); type: functional
PANC-1 [27] = assay: Induction of cell cycle arrest in human PANC-1 cells assessed as accumulation at G1 phase at 2 uM incubated for 24 hrs in presence of JQ1 by PI staining based flow cytometry (reference value: 51.70 %); type: functional
PANC-1 [28] = assay: Induction of cell cycle arrest in human PANC-1 cells assessed as accumulation at G1 phase at 2.5 uM incubated for 24 hrs by PI staining based flow cytometry (reference value: 51.70 %); type: functional
PANC-1 [29] = assay: Induction of apoptosis in human PANC-1 cells assessed as early apoptotic cells at 2.5 uM incubated for 48 hrs by Annexin V-FITC/PI staining based flow cytometry (reference value: 1.41 %); type: functional
[30] = Toxicity in BALB/c mouse xenografted with human PANC-1 cells assessed as pathological changes in kidney at 40 mg/kg, ip for 4 weeks administered for 5 days consecutively and 2 days without treatment on every week by H and E staining based analysis; type: organism-based; conditions: in vivo, 672 h
PANC-1 [31] = assay: Induction of apoptosis in human PANC-1 cells assessed as necrotic cells at 2.5 uM incubated for 48 hrs by Annexin V-FITC/PI staining based flow cytometry (reference value: 3.09 %); type: functional

SMILES | viability at 0.6 µM (PANC-1 [1]) [%] | Activity (PANC-1 [2]) [%] | Activity (PANC-1 [3]) [%] | Activity (PANC-1 [4]) | Activity [5] | Activity (PANC-1 [6]) | Activity (PANC-1 [7]) [%] | viability at 5 µM (PANC-1 [8]) [%] | inhibition (PANC-1 [9]) | Activity (PANC-1 [10]) [%] | Activity (PANC-1 [11]) [%] | viability at 1.2 µM (PANC-1 [12]) [%] | Activity [13] | Activity (PANC-1 [14]) [%] | Activity (PANC-1 [15]) [%] | Activity (PANC-1 [16]) | Activity [17] | viability at 2 µM (PANC-1 [18]) [%] | Activity (PANC-1 [19]) [%] | Activity (PANC-1 [20]) | other results
O=C(c1cc(Cc2n[nH]c(=O)c3ccccc23)ccc1F)N1CCN(C(=O)C2CC2)CC1 [OLAPARIB] | 90.3 | 42.54 | 35.31 | Active | Non-toxic | Dose-dependent-effect | 46.78 | 88.2 | Active | 43.96 | 44.95 | 89.1 | Non-toxic | 3.98 | 25.85 | Active | Non-toxic | 68.3 | 15.74 | Active | Activity [21]: Non-toxic; Activity (PANC-1 [22]): 3.98%; Activity (PANC-1 [23]): 41%; inhibition in vivo at 40 mg/kg (PANC-1 [24]): 80.7%; Activity (PANC-1 [25]): 10.68%; Activity (PANC-1 [26]): 3.23%; Activity (PANC-1 [27]): 58.42%; Activity (PANC-1 [28]): 44.32%; Activity (PANC-1 [29]): 2.76%; Activity [30]: Non-toxic; Activity (PANC-1 [31]): 3.45%
O=C1CCC(N2C(=O)c3cccc(NC(=O)CNCCCCCCCCCCC(=O)N4CCN(C(=O)c5cc(Cc6n[nH]c(=O)c7ccccc67)ccc5F)CC4)c3C2=O)C(=O)N1 (configuration not stated) | 88.9 | 44.14 | 43.14 | Active | Non-toxic | Dose-dependent-effect | 45.34 | 86.7 | Active | 42.71 | 40.91 | 89.8 | Non-toxic | 4.38 | 26.81 | Active | Non-toxic | 64.3 | 22.93 | Active | Activity [21]: Non-toxic; Activity (PANC-1 [22]): 3.71%; Activity (PANC-1 [23]): 42.94%; inhibition in vivo at 40 mg/kg (PANC-1 [24]): ≤ 98.5%; Activity (PANC-1 [25]): 10.52%; Activity (PANC-1 [26]): 3.52%; Activity (PANC-1 [27]): 50.25%; Activity (PANC-1 [28]): 43.76%; Activity (PANC-1 [29]): 4.13%; Activity [30]: Non-toxic; Activity (PANC-1 [31]): 2.55%
